Tests used:
[1] = Study for confirmation of conversion to brexpiprazole in a buffer (stability of the evaluation compounds); format: physicochemical; conditions: in buffer, average of duplicate; for Concentration of brexpiprazole formed: 60-minute reaction sample; for Concentration of evaluation compound decreased: decrease in 60-minute vs 0-minute reaction sample
Outline: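 Compounds (final 1 μmol/L, from 100 μmol/L working solutions) incubated in buffer at 37° C. for 0 or 60 min, in duplicate, after 3 min pre-incubation of the reaction solution. Reactions stopped with acetonitrile/isopropanol (4:1) containing internal standards; compound and formed brexpiprazole quantified against 0.01–1 μmol/L calibration samples.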

in vitro = format: cell-based, human; conditions: human, differentiated hl-60 cells, 300 μmol/L, about 24 hours, PMA-differentiated HL-60 cells, LDH; no-treatment 0%, cell lysis buffer 100%; read-out: cytotoxicity (%) Evaluation compound results
Outline: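 HL-60 cells differentiated ~72 h with 10 nM PMA, then exposed ~24 h to compound at 300 μmol/L final in RPMI with 2% FBS. LDH release in supernatant gave cytotoxicity % scaled between untreated (0%) and lysis-buffer (100%) groups; triplicate.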

| SMILES | Concentration of brexpiprazole formed [1] | Concentration of evaluation compound decreased [1] | cytotoxicity at 24 h, 300 µM (in vitro) |
| --- | --- | --- | --- |
| CC(C)OC(=O)[C@@H](C)OP(=O)([O-])OC[N+]1(CCCCOc2ccc3ccc(=O)[nH]c3c2)CCN(c2cccc3sccc23)CC1 [EX 105, (R)-(4-(benzo[b]thiophen-4-yl)-1-(4-((2-oxo-1,2-dihydroquinolin-7-yl)oxy)butyl)piperazin-1-ium-1-yl)methyl (1-isopropoxy-1-oxopropan-2-yl) phosphate] | 0 nM | 50 nM | -6% |
| C[C@@H](OP(=O)([O-])OC[N+]1(CCCCOc2ccc3ccc(=O)[nH]c3c2)CCN(c2cccc3sccc23)CC1)C(=O)OC(C)(C)C [EX 106, (R)-(4-(benzo[b]thiophen-4-yl)-1-(4-((2-oxo-1.2-dihydroquinolin-7-yl)oxy)butyl)piperazin-1-ium-1-yl)methyl (1-(tert-butoxy)-1-oxopropan-2-yl) phosphate] | 0 nM | 70 nM | 10% |
| CC(C)COC(=O)[C@@H](C)OP(=O)([O-])OC[N+]1(CCCCOc2ccc3ccc(=O)[nH]c3c2)CCN(c2cccc3sccc23)CC1 [EX 107, (R)-(4-(benzo[b]thiophen-4-yl)-1-(4-((2-oxo-1,2-dihydroquinolin-7-yl)oxy)butyl)piperazin-1-ium-1-yl)methyl (1-isobutoxy-1-oxopropan-2-yl) phosphate] | 0 nM | 70 nM | -6% |
| CCC(CC)COC(=O)[C@@H](C)OP(=O)([O-])OC[N+]1(CCCCOc2ccc3ccc(=O)[nH]c3c2)CCN(c2cccc3sccc23)CC1 [EX 108, (R)-(4-(benzo[b]thiophen-4-yl)-1-(4-((2-oxo-1,2-dihydroquinolin-7-yl)oxy)butyl)piperazin-1-ium-1-yl)methyl (1-(2-ethylbutoxy)-1-oxopropan-2-yl) phosphate] | 0 nM | 80 nM | -7% |
| O=c1ccc2ccc(OCCCC[N+]3(COP(=O)([O-])OCCN4CCC(F)(F)CC4)CCN(c4cccc5sccc45)CC3)cc2[nH]1 [EX 119, (4-(benzo[b]thiophen-4-yl)-1-(4-((2-oxo-1,2-dihydroquinolin-7-yl)oxy)butyl)piperazin-1-ium-1-yl)methyl (2-(4,4-difluoropiperidin-1-yl)ethyl) phosphate] | 0 nM | 140 nM | 2% |
| CCC(=O)OCOP(=O)([O-])OC[N+]1(CCCCOc2ccc3ccc(=O)[nH]c3c2)CCN(c2cccc3sccc23)CC1 [EX 120, (4-(benzo[b]thiophen-4-yl)-1-(4-((2-oxo-1,2-dihydroquinolin-7-yl)oxy)butyl)piperazin-1-ium-1-yl)methyl ((propionyloxy)methyl) phosphate] | 0 nM | 50 nM | 13% |
| O=C(CCCCCO)OCOP(=O)([O-])OC[N+]1(CCCCOc2ccc3ccc(=O)[nH]c3c2)CCN(c2cccc3sccc23)CC1 [EX 126, (4-(benzo[b]thiophen-4-yl)-1-(4-((2-oxo-1,2-dihydroquinolin-7-yl)oxy)butyl)piperazin-1-ium-1-yl)methyl (6-hydroxyhexanoyl)oxy)methyl) phosphate] | 0 nM | 160 nM | -7% |
| CC(C)(C)OC(=O)NC(C)(C)C(=O)OCOP(=O)([O-])OC[N+]1(CCCCOc2ccc3ccc(=O)[nH]c3c2)CCN(c2cccc3sccc23)CC1 [EX 128, (4-(benzo[b]thiophen-4-yl)-1-(4-((2-oxo-1,2-dihydroquinolin-7-yl)oxy)butyl)piperazin-1-ium-1-yl)methyl (((2-(tert-butoxycarbonyl)amino)-2-methylpropanoyl)oxy)methyl) phosphate] | 0 nM | -30 nM | 2% |

Continued, in another order:

| Concentration of brexpiprazole formed [1] | Concentration of evaluation compound decreased [1] | SMILES | cytotoxicity at 24 h, 300 µM (in vitro) |
| --- | --- | --- | --- |
| 0 nM | 70 nM | CCOC(=O)C(CC)OP(=O)([O-])OC[N+]1(CCCCOc2ccc3ccc(=O)[nH]c3c2)CCN(c2cccc3sccc23)CC1 (stereo not drawn) [EX 110, (4-(benzo[b]thiophen-4-yl)-1-(4-((2-oxo-1,2-dihydroquinolin-7-yl)oxy)butyl)piperazin-1-ium-1-yl)methyl (1-ethoxy-1-oxobutan-2-yl) phosphate] | -3% |
| 0 nM | 20 nM | CCOC(=O)C[C@@H](OP(=O)([O-])OC[N+]1(CCCCOc2ccc3ccc(=O)[nH]c3c2)CCN(c2cccc3sccc23)CC1)C(=O)OCC [EX 111, (R)-(4-(benzo[b]thiophen-4-yl)-1-(4-((2-oxo-1,2-dihydroquinolin-7-yl)oxy)butyl)piperazin-1-ium-1-yl)methyl (1,4-diethoxy-1,4-dioxobutan-2-yl) phosphate] | 0% |
| 0 nM | 160 nM | O=c1ccc2ccc(OCCCC[N+]3(COP(=O)([O-])OCCCCCCl)CCN(c4cccc5sccc45)CC3)cc2[nH]1 [EX 113, (4-(benzo[b]thiophen-4-yl)-1-(4-((2-oxo-1,2-dihydroquinolin-7-yl)oxy)butyl)piperazin-1-ium-1-yl)methyl (5-chloropentyl) phosphate] | 10% |
| 0 nM | 90 nM | C[C@@H]1CN(CCOP(=O)([O-])OC[N+]2(CCCCOc3ccc4ccc(=O)[nH]c4c3)CCN(c3cccc4sccc34)CC2)C[C@H](C)O1 [EX 116, (4-(benzo[b]thiophen-4-yl)-1-(4-((2-oxo-1,2-dihydroquinolin-7-yl)oxy)butyl)piperazin-1-ium-1-yl)methyl (2-((2S,6R)-2,6-dimethylmorpholino)ethyl) phosphate] | -9% |
| 0 nM | 50 nM | CN1CCN(CCOP(=O)([O-])OC[N+]2(CCCCOc3ccc4ccc(=O)[nH]c4c3)CCN(c3cccc4sccc34)CC2)CC1 [EX 117, (4-(benzo[b]thiophen-4-yl)-1-(4-((2-oxo-1,2-dihydroquinolin-7-yl)oxy)butyl)piperazin-1-ium-1-yl)methyl (2-(4-methylpiperazin-1-yl)ethyl) phosphate] | -7% |
| 0 nM | 60 nM | O=c1ccc2ccc(OCCCC[N+]3(COP(=O)([O-])OCCN4CCCCC4)CCN(c4cccc5sccc45)CC3)cc2[nH]1 [EX 118, (4-(benzo[b]thiophen-4-yl)-1-(4-((2-oxo-1,2-dihydroquinolin-7-yl)oxy)butyl)piperazin-1-ium-1-yl)methyl (2-(piperidin-1-yl)ethyl) phosphate] | -8% |
| 0 nM | -110 nM | CCCC(C)(C)C(=O)OCOP(=O)([O-])OC[N+]1(CCCCOc2ccc3ccc(=O)[nH]c3c2)CCN(c2cccc3sccc23)CC1 [EX 123, (4-(benzo[b]thiophen-4-yl)-1-(4-((2-oxo-1.2-dihydroquinolin-7-yl)oxy)butyl)piperazin-1-ium-1-yl)methyl (((2,2-dimethylpentanoyl)oxy)methyl) phosphate] | -8% |
| 0 nM | 130 nM | O=C(CCO)OCOP(=O)([O-])OC[N+]1(CCCCOc2ccc3ccc(=O)[nH]c3c2)CCN(c2cccc3sccc23)CC1 [EX 125, (4-(benzo[b]thiophen-4-yl)-1-(4-((2-oxo-1,2-dihydroquinolin-7-yl)oxy)butyl)piperazin-1-ium-1-yl)methyl (((3-hydroxypropanoyl)oxy)methyl) phosphate] | -7% |
| 0 nM | 40 nM | O=C(OCOP(=O)([O-])OC[N+]1(CCCCOc2ccc3ccc(=O)[nH]c3c2)CCN(c2cccc3sccc23)CC1)C1CCOCC1 [EX 127, (4-(benzo[b]thiophen-4-yl)-1-(4-((2-oxo-1,2-dihydroquinolin-7-yl)oxy)butyl)piperazin-1-ium-1-yl)methyl (((tetrahydro-2H-pyran-4-carbonyl)oxy)methyl) phosphate] | 0% |
| 0 nM | 90 nM | CCOC(=O)OCOP(=O)([O-])OC[N+]1(CCCCOc2ccc3ccc(=O)[nH]c3c2)CCN(c2cccc3sccc23)CC1 [EX 129, (4-(benzo[b]thiophen-4-yl)-1-(4-(((2-oxo-1,2-dihydroquinolin-7-yl)oxy)butyl)piperazin-1-ium-1-yl)methyl (((ethoxycarbonyl)oxy)methyl) phosphate] | -4% |
| 0 nM | -20 nM | CC(C)OC(=O)OCOP(=O)([O-])OC[N+]1(CCCCOc2ccc3ccc(=O)[nH]c3c2)CCN(c2cccc3sccc23)CC1 [EX 130, (4-(benzo[b]thiophen-4-yl)-1-(4-((2-oxo-1,2-dihydroquinolin-7-yl)oxy)butyl)piperazin-1-ium-1-yl)methyl (isopropoxycarbonyl)oxy)methyl) phosphate] | 1% |

Reference: patent US20260285888A1, “HETEROCYCLIC COMPOUND AND USE THEREOF” (OTSUKA PHARMACEUTICAL CO., LTD., priority 2023, published 2026)
